Assay results: paper PMC8611036, “An integrated method for optimized identification of effective natural inhibitors against SARS-CoV-2 3CLpro” (Scientific Reports, 2021)
Non-standard residues stand in square brackets, D forms with d. Residues, ends and D or L forms follow the SMILES beside them. ξ: configuration not given here. *: point of attachment. Cha = N[C@@H](CC1CCCCC1)C(=O)O; ξF = NC(Cc1ccccc1)C(=O)O; Cbz = O=C(OCc1ccccc1)*; CF3 = FC(F)(F)*

Key:
SARS-CoV 3CLpro [1] = type: biochemical; conditions: activity class by pIC50 threshold 6
SARS-CoV-2 3CLpro = SARS-CoV-2 3CLpro (Severe acute respiratory syndrome coronavirus 2, UniProt P0DTD1); conditions: SARS-CoV pIC50 multiplied by similarity index (SI), training set compounds
SARS-CoV 3CLpro [2] = conditions: SARS-CoV 3CLpro inhibitors (training set), ref: per compound, cited from earlier work; for pIC50: from literature IC50; for IC50: literature values

Row | Compound | Inact.(<6)/Act.(>=6) (SARS-CoV 3CLpro [1]) | SI*pIC50 (SARS-CoV-2 3CLpro) | pIC50 (SARS-CoV 3CLpro [2]) | IC50 (SARS-CoV 3CLpro [2]) [µM]
1 | Nc1ncc(S(=O)(=O)c2ccc(Cl)cc2)c(N)n1 [CMP141] | Inact. (Inact.(<6)) | 5.374 | 5.222 | 6
2 | O=C(Oc1cncc(Cl)c1)c1cc2ccccc2[nH]1 [CMP170] | Act. (Act.(>=6)) | 7.307 | 7.1549 | 0.07
3 | CSc1[nH]nc(NC(=O)c2cccs2)c1S(=O)(=O)c1ccccc1 [CMP177] | Inact. (Inact.(<6)) | 4.976 | 4.824 | 15
4 | CC(C)C1=CC2=CC[C@@H]3[C@](C)(CCC[C@@]3(C)C(=O)O)[C@H]2CC1 [CMP124] | Inact. (Inact.(<6)) | 3.875 | 3.723 | 189
5 | Nc1nc(CSc2nnc(-c3cccc4ccccc34)n2-c2ccccc2)cs1 [CMP135] | Inact. (Inact.(<6)) | 4.386 | 4.234 | 58.3
6 | C=C[C@@]1(C)CC[C@H]2C(=CC[C@@H]3[C@]2(C)CCC[C@@]3(C)C(=O)O)C1 [CMP133] | Inact. (Inact.(<6)) | 3.699 | 3.547 | 284
7 | C=C(N[C@@H](CC(C)C)C(=O)N[C@@H](CC1CCNC1=O)C(=O)Cn1[nH]c(=O)c2c([N+](=O)[O-])cccc2c1=O)[C@@H](NC(=O)[C@H](C)NC(=O)O)[C@@H](C)OCc1ccccc1 (stereo partly drawn) [CMP101] | Act. (Act.(>=6)) | 6.374 | 6.222 | 0.6
8 | O=C1C(=O)N(Cc2ccc(C(=O)N3CCCCC3)s2)c2ccc(I)cc21 [CMP100] | Inact. (Inact.(<6)) | 4.909 | 4.757 | 17.5
9 | O=C(Oc1cncc(Cl)c1)c1cccc2ccccc12 [CMP168] | Act. (Act.(>=6)) | 7.073 | 6.921 | 0.12
10 | COc1cc(C=NNC(=O)C(=Cc2ccccc2)NC(=O)c2ccccc2)cc(OC)c1O [CMP123] | Inact. (Inact.(<6)) | 4.265 | 4.113 | 77.1
11 | CC1=C(O)C(=O)C=C2C1=CC=C1[C@@]2(C)CC[C@@]2(C)[C@@H]3C[C@@H](C)C(=O)C[C@]3(C)CC[C@]12C [CMP126] | Inact. (Inact.(<6)) | 5.156 | 5.004 | 9.91
12 | CCCn1c(NCc2ccc(N3N=C(c4ccccc4)CC3c3ccccc3)cc2)nc2ccccc21 (stereo not drawn) [CMP115] | Inact. (Inact.(<6)) | 5.249 | 5.097 | 8
13 | CCOC(=O)/C=C/[C@H](C[C@@H]1CCNC1=O)NC(=O)[C@H](CC=C(C)C)CC(=O)[C@@H](NC(=O)c1cc(C)on1)C(C)C [CMP160] | Inact. (Inact.(<6)) | 4.307 | 4.1549 | 70
14 | COc1cc(C[S+]([O-])c2nc3cccnc3s2)oc(=O)c1 (stereo not drawn) [CMP109] | Inact. (Inact.(<6)) | 5.294 | 5.143 | 7.2
15 | CCOC(=O)C(C#N)=CNc1ccc(S(=O)(=O)c2ccc(NC=C(C#N)C(=O)OCC)cc2)cc1 [CMP122] | Inact. (Inact.(<6)) | 4.948 | 4.796 | 16
16 | O=[N+]([O-])c1ccc(S(=O)(=O)c2ccc(Cl)cc2)[n+]([O-])c1 [CMP121] | Inact. (Inact.(<6)) | 4.976 | 4.824 | 15
17 | O=C(Cc1cncc(Cl)c1)c1cccs1 [CMP181] | Act. (Act.(>=6)) | 6.453 | 6.301 | 0.5
18 | CC(C)C[C@H](NC(=O)[C@@H](NC(=O)[C@H](C)NC(=O)OCc1ccccc1)C(C)C)C(=O)NC(Cc1ccccc1)C(=O)C(F)(F)F (stereo partly drawn) [CMP174] (Cbz-AVL[ξF]-CF3) | Inact. (Inact.(<6)) | 5.152 | 5 | 10
19 | O=C(Oc1cncc(Cl)c1)c1cc2ccccc2s1 [CMP140] | Act. (Act.(>=6)) | 7.152 | 7 | 0.1

Row | Compound | Inact.(<6)/Act.(>=6) (SARS-CoV 3CLpro [1]) | SI*pIC50 (SARS-CoV-2 3CLpro) | pIC50 (SARS-CoV 3CLpro [2]) | IC50 (SARS-CoV 3CLpro [2]) [µM]
20 | CC(C)(C)NC(=O)C(c1cccnc1)N(C(=O)c1cccs1)c1ccc(C(C)(C)C)cc1 (stereo not drawn) [CMP189] | Inact. (Inact.(<6)) | 4.453 |  | 
21 | O=C(Nc1ccc(Cl)cc1)c1ccc(CN2C(=O)C(=O)c3cc(I)ccc32)s1 [CMP99] |  | 5.052 |  | 
22 | CC(C)(C)NC(=O)C(c1ccncc1)N(C(=O)c1ccco1)c1ccc(C(C)(C)C)cc1 (stereo not drawn) [CMP205] | Inact. (Inact.(<6)) |  |  | 
23 | CC1=CC[C@]2(C)CC[C@]3(C)C4=CC=C5C(=CC(=O)C(O)=C5C)[C@]4(C)CC[C@@]3(C)[C@@H]2C1 [CMP200] | Inact. (Inact.(<6)) |  |  | 
24 | COC(=O)c1nc(SSc2ccccc2[N+](=O)[O-])[nH]c1C [CMP269] | Inact. (Inact.(<6)) |  |  | 
25 | O=C(Oc1cncc(Cl)c1)c1ccc(-c2ccc(Cl)cc2[N+](=O)[O-])o1 [CMP280] | Act. (Act.(>=6)) |  |  | 
26 | O=C(Oc1cncc(Br)c1)c1ccco1 [CMP276] | Act. (Act.(>=6)) |  |  | 
27 | O=c1c(O)c(-c2ccc(O)c(O)c2)oc2cc(O)cc(O)c12 [CMP151] | Inact. (Inact.(<6)) |  |  | 
28 | CC(C)(C)NC(=O)C(c1cccnc1)N(C(=O)C1=NC=NC1)c1ccc(C(C)(C)C)cc1 (stereo not drawn) [CMP234] | Inact. (Inact.(<6)) |  |  | 
29 | COc1ncc(-c2ccc(N(Cc3ccsc3)C(=O)Cn3nnc4ccccc43)cc2)cn1 [CMP222] | Inact. (Inact.(<6)) |  |  | 
30 | C=C(Cc1cccc(C)c1)C1=CC=C(c2ccc(C)cc2)C1 [CMP233] | Inact. (Inact.(<6)) |  |  | 
31 | Cc1ccc(C(=O)N/C(=C\c2ccc(-c3ccccc3[N+](=O)[O-])o2)C(=O)NCCCN(C)C)cc1 [CMP284] | Inact. (Inact.(<6)) |  |  | 
32 | O=C[C@H](Cc1c[nH]cn1)NC[C@@H]1C[C@H]2CCCC[C@@H]2CN1C(=O)c1ccc(F)cc1 [CMP258] | Inact. (Inact.(<6)) |  |  | 
33 | O=C(Sc1nnc(C(F)(F)F)[nH]1)c1ccc(C#Cc2ccccc2)o1 [CMP143] | Inact. (Inact.(<6)) |  |  | 
34 | CC1CCCCN1S(=O)(=O)c1ccc2c(c1)C(=O)C(=O)N2 (stereo not drawn) [CMP240] | Inact. (Inact.(<6)) |  |  | 
35 | CC(C)C[C@H](NC(=O)[C@@H](NC(=O)[C@H](C)NC(=O)[C@H](CO)NC(=O)[C@@H](NC(=O)OCc1ccccc1)[C@@H](C)O)C(C)C)C(=O)N[C@H](C#N)CCC(N)=O [CMP231] (HELM PEPTIDE1{[O=C(OCc1ccccc1)[*:2]].T.S.A.V.L.[N#C[C@H](CCC(N)=O)N[*:1]]}$$$$V2.0) | Inact. (Inact.(<6)) |  |  | 
36 | CC1CCN(S(=O)(=O)c2ccc3c(c2)C(=O)C(=O)N3C)CC1 [CMP247] | Inact. (Inact.(<6)) |  |  | 
37 | CCN(CC)c1ccc(C(=O)On2nnc3ccccc32)cc1 [CMP164] | Inact. (Inact.(<6)) |  |  | 
38 | CC(C)(C)NC(=O)C(c1cccnc1)N(C(=O)c1ncco1)c1ccc(C(C)(C)C)cc1 (stereo not drawn) [CMP202] | Inact. (Inact.(<6)) |  |  | 

Row | Compound | Inact.(<6)/Act.(>=6) (SARS-CoV 3CLpro [1]) | SI*pIC50 (SARS-CoV-2 3CLpro) | pIC50 (SARS-CoV 3CLpro [2]) | IC50 (SARS-CoV 3CLpro [2]) [µM]
39 | COc1ccc(-c2cc(=O)c3c(O)cc(O)cc3o2)cc1-c1c(O)cc(O)c2c(=O)cc(-c3ccc(O)cc3)oc12 [CMP157] | Inact. (Inact.(<6)) |  |  | 
40 | CC(=O)N[C@@H](CO)C(=O)N[C@@H](C)C(=O)N[C@H](C(=O)N[C@@H](CC(C)C)C(=O)N[C@H](C=O)Cc1ccccc1)C(C)C [CMP215] (Ac-SAVLF-aldehyde) | Inact. (Inact.(<6)) |  |  | 
41 | CC(C)C[C@H](NC(=O)[C@@H](NC(=O)[C@H](C)NC(=O)OCc1ccccc1)C(C)C)C(=O)N[C@H](C#N)CCC(N)=O [CMP230] | Inact. (Inact.(<6)) |  |  | 
42 | O=C(Oc1cncc(Cl)c1)c1ccc(Cl)cc1 [CMP165] | Act. (Act.(>=6)) |  |  | 
43 | O=[N+]([O-])c1ccccc1SSc1ncccn1 [CMP270] | Act. (Act.(>=6)) |  |  | 
44 | CNc1ccc(N(Cc2ccsc2)C(=O)Cn2nnc3ccccc32)cc1 [CMP223] | Inact. (Inact.(<6)) |  |  | 
45 | O=C1C(=O)N(C/C=C/c2cc3ccccc3s2)c2ccc(I)cc21 [CMP98] |  | 4.781 |  | 
46 | O=C(Oc1cncc(Cl)c1)c1ccc(-c2ccccc2[N+](=O)[O-])o1 [CMP281] | Act. (Act.(>=6)) |  |  | 
47 | CC(C)COC(=O)Nc1ccc(N(Cc2ccsc2)C(=O)Cn2nnc3ccccc32)cc1 [CMP199] | Inact. (Inact.(<6)) |  |  | 
48 | CC(=O)N[C@@H](C)C(=O)N[C@H](C(=O)N[C@@H](CC1CCCCC1)C(=O)N[C@H](C=O)Cc1c[nH]cn1)C(C)C [CMP219] (Ac-AV[Cha]H-aldehyde) | Act. (Act.(>=6)) |  |  | 
49 | O=[N+]([O-])c1ccccc1SSc1nccs1 [CMP266] | Inact. (Inact.(<6)) |  |  | 
50 | O=C1NN(c2ccc(Cl)c(Cl)c2)C(=O)/C1=C\c1ccc(-c2ccc(Br)cc2C(=O)O)o1 [CMP104] | Inact. (Inact.(<6)) |  |  | 
51 | CN1CCN(S(=O)(=O)c2ccc3c(c2)C(=O)C(=O)N3)CC1 [CMP227] | Inact. (Inact.(<6)) |  |  | 
52 | Cn1cnc(C(=O)N(c2ccc(C(C)(C)C)cc2)C(C(=O)NC(C)(C)C)c2cccnc2)c1 (stereo not drawn) [CMP206] | Inact. (Inact.(<6)) |  |  | 
53 | COc1ncccc1-c1ccc(N(Cc2ccsc2)C(=O)Cn2nnc3ccccc32)cc1 [CMP225] | Act. (Act.(>=6)) |  |  | 
54 | O=C(Oc1cncc(Cl)c1)c1ccc(-c2ccc([N+](=O)[O-])cc2)o1 [CMP282] | Act. (Act.(>=6)) |  |  | 
55 | Cc1nnc(SSc2ccccc2[N+](=O)[O-])o1 [CMP273] | Inact. (Inact.(<6)) |  |  | 
56 | CN1CCN(S(=O)(=O)c2ccc3c(c2)C(=O)C(=O)N3Cc2ccccc2)CC1 [CMP242] | Inact. (Inact.(<6)) |  |  | 
